Earlier results, collected in PMC13612640 (Cancer Chemotherapy and Pharmacology, 2026).

Parameters: method as in PMID 41165508

- Plasma fraction unbound (fu): 0.046
SMILES: COc1ccc(F)cc1C(=O)NCc1ccc(-c2nn([C@@H](C)C(F)(F)F)c(N)c2C(N)=O)cc1 [pirtobrutinib]
